Measured values published in US11629171B2, “Beta-hairpin peptidomimetics” (POLYPHOR AG, priority 2017, dated 2023).
Values after ≈ are worked out from the molar mass of the structure shown. Where a SMILES comes first, the peptide text is derived from it. Bridges are numbered along the chain shown (N, C = ends). Roman numbers before positions name the chains, in order. [ ]: non-standard residue; d: D form. The star is where a group is joined. Tle = CC(C)(C)[C@H](N)C(=O)O; dDab = NCC[C@@H](N)C(=O)O; hSer = N[C@@H](CCO)C(=O)O; Orn = NCCC[C@H](N)C(=O)O; Dab = NCC[C@H](N)C(=O)O; Dap = NC[C@H](N)C(=O)O; Propionyl = CCC(=O)*

How the values were obtained:
Assay type in all cases: cell-based
[1] = tested on: human red blood cells (hRBC); test: Hemolysis; conditions: red cells of human, 1 h, 200
Outline: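 Hemoglobin release from PBS-washed hRBC at 20% (v/v), incubated 1 h at 37° C with peptides at 200 μg/mL, is measured at 540 nm. Values are blank corrected and given as a fraction of Triton X-100 lysis × 100%.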

Escherichia coli 926415 = conditions: 926415
Outline: (§1)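 Visible-growth endpoint after 18-20 h at 35° C defines the MIC (μg/mL). Setup: CLSI broth microdilution, MH-II cation-adjusted broth with P-80 at 0.002% final, inoculum of approximately 10^6 CFU/mL, two-fold serial peptide dilutions.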

[2] = tested on: Enterobacter cloacae 848840; conditions: 848840
Outline: as §1

[3] = tested on: Escherichia coli ATCC 25922; conditions: ATCC 25922
Outline: as §1

[4] = tested on: Klebsiella pneumoniae SSI #3010; conditions: SSI #3010
Outline: as §1

[5] = tested on: Pseudomonas aeruginosa ATCC 27853; conditions: ATCC 27853
Outline: as §1

[6] = tested on: Acinetobacter baumannii 872842; conditions: 872842
Outline: as §1

[7] = tested on: Acinetobacter baumannii DSM 30008; conditions: DSM 30008
Outline: as §1

[8] = tested on: Klebsiella pneumoniae 968733; conditions: 968733
Outline: as §1

| MIC (Escherichia coli 926415) | MIC [2] | Escherichia coli ATCC 25922 MIC [3] | Klebsiella pneumoniae SSI #3010 MIC [4] | Pseudomonas aeruginosa ATCC 27853 MIC [5] | MIC [6] | Acinetobacter baumannii DSM 30008 MIC [7] | MIC [8] | MIC [3] | MIC [4] | MIC [5] | MIC [7] | Compound | Hemolysis at 200 μg/mL [1] |
| --- | --- | --- | --- | --- | --- | --- | --- | --- | --- | --- | --- | --- | --- |
| 0.25 µg/mL (≈ 0.103 µM) | 0.125 µg/mL (≈ 0.0515 µM) | 0.03125 µg/mL | 0.0625 µg/mL | 0.125 µg/mL | 0.0625 µg/mL (≈ 0.0258 µM) | 0.03125 µg/mL | 0.25 µg/mL (≈ 0.103 µM) | – | – | – | – | CC(=O)N[C@H](C(=O)N[C@H]1CSSC[C@@H](C(=O)N[C@@H](CO)C(N)=O)NC(=O)[C@H](C(C)C)NC(=O)[C@H](CO)NC(=O)[C@H](Cc2c[nH]c3ccccc23)NC(=O)[C@H](CCC(=O)N[C@@H](CCN)C(=O)N[C@H](C(=O)N[C@@H](CN)C(=O)N[C@H]2CCNC(=O)[C@H]([C@@H](C)O)NC(=O)[C@H](CCN)NC(=O)[C@H](CCN)NC(=O)[C@H](CC(C)C)NC(=O)[C@@H](CC(C)C)NC(=O)[C@H](CCN)NC2=O)[C@@H](C)O)NC(=O)[C@@H](CCN)NC(=O)[C@H](CCCN)NC(=O)[C@H]([C@@H](C)O)NC(=O)[C@H](Cc2ccc(O)cc2)NC1=O)C(C)C [Ex. 355] (I: Ac-VCYT[Orn][dDab]EWSVCS-NH2 / II: [Dab]T[Dap][Dab][Dab][dL]L[Dab][Dab]T; disulfide I:2-I:11; amide I:7-II:N; lactam II:4-II:C) | 6% |
| 0.125 µg/mL (≈ 0.0512 µM) | 0.125 µg/mL (≈ 0.0512 µM) | – | – | – | 0.125 µg/mL (≈ 0.0512 µM) | – | 0.25 µg/mL (≈ 0.102 µM) | 0.0625 µg/mL (≈ 0.0256 µM) | 0.125 µg/mL (≈ 0.0512 µM) | 0.125 µg/mL (≈ 0.0512 µM) | 0.125 µg/mL (≈ 0.0512 µM) | CC(=O)N[C@H](C(=O)N[C@H]1CSSC[C@@H](C(=O)N[C@@H](CO)C(N)=O)NC(=O)[C@H](C(C)(C)C)NC(=O)[C@H](CO)NC(=O)[C@H](Cc2c[nH]c3ccccc23)NC(=O)[C@H]([C@@H](C)O)NC(=O)[C@@H](CCN)NC(=O)[C@H](CCC(=O)N[C@@H](CCN)C(=O)N[C@H](C(=O)N[C@@H](CCN)C(=O)N[C@H]2CCNC(=O)[C@H]([C@@H](C)O)NC(=O)[C@H](CCN)NC(=O)[C@H](CCN)NC(=O)[C@H](CC(C)C)NC(=O)[C@@H](CC(C)C)NC(=O)[C@H](CCN)NC2=O)[C@@H](C)O)NC(=O)[C@H](CCN)NC(=O)[C@H](Cc2ccc(O)cc2)NC1=O)C(C)C [Ex. 44] (I: Ac-VCY[Dab]E[dDab]TWS[Tle]CS-NH2 / II: [Dab]T[Dab][Dab][Dab][dL]L[Dab][Dab]T; disulfide I:2-I:11; amide I:5-II:N; lactam II:4-II:C) | <1% |
| 0.25 µg/mL (≈ 0.107 µM) | 0.25 µg/mL (≈ 0.107 µM) | – | – | – | 0.25 µg/mL (≈ 0.107 µM) | – | 0.125 µg/mL (≈ 0.0536 µM) | 0.0625 µg/mL (≈ 0.0268 µM) | 0.0625 µg/mL (≈ 0.0268 µM) | 0.25 µg/mL (≈ 0.107 µM) | 0.0625 µg/mL (≈ 0.0268 µM) | CC(=O)N[C@H](C(=O)N[C@H]1CCCNC(=O)[C@@H]([C@H](C)O)NC(=O)[C@H](C(C)(C)C)NC(=O)[C@H](CO)NC(=O)[C@H](Cc2c[nH]c3ccccc23)NC(=O)[C@H](CCO)NC(=O)[C@@H](CCN)NC(=O)[C@H](CCC(=O)N[C@@H](CCN)C(=O)N[C@H](C(=O)N[C@@H](CN)C(=O)N[C@H]2CCNC(=O)[C@H]([C@@H](C)O)NC(=O)[C@H](CCN)NC(=O)[C@H](CCN)NC(=O)[C@H](CC(C)C)NC(=O)[C@@H](CC(C)C)NC(=O)[C@H](CCN)NC2=O)[C@@H](C)O)NC(=O)[C@H](CCN)NC(=O)[C@H](Cc2ccc(O)cc2)NC1=O)C(C)C [Ex. 16] (I: Ac-V[Orn]Y[Dab]E[dDab][hSer]WS[Tle][dT] / II: [Dab]T[Dap][Dab][Dab][dL]L[Dab][Dab]T; lactam I:2-I:C, II:4-II:C; amide I:5-II:N) | <1% |
| 0.0625 µg/mL (≈ 0.0258 µM) | 0.125 µg/mL (≈ 0.0515 µM) | – | – | – | 0.0625 µg/mL (≈ 0.0258 µM) | – | 0.0625 µg/mL (≈ 0.0258 µM) | 0.03125 µg/mL (≈ 0.0129 µM) | 0.0625 µg/mL (≈ 0.0258 µM) | 0.125 µg/mL (≈ 0.0515 µM) | 0.0625 µg/mL (≈ 0.0258 µM) | CCC(=O)N[C@H](C(=O)N[C@H]1CSSC[C@@H](C(=O)N[C@@H](CO)C(N)=O)NC(=O)[C@H](C(C)(C)C)NC(=O)[C@H](CO)NC(=O)[C@H](Cc2c[nH]c3ccccc23)NC(=O)[C@H](CO)NC(=O)[C@@H](CCN)NC(=O)[C@H](CCC(=O)N[C@@H](CCN)C(=O)N[C@H](C(=O)N[C@@H](CN)C(=O)N[C@H]2CCNC(=O)[C@H]([C@@H](C)O)NC(=O)[C@H](CCN)NC(=O)[C@H](CCN)NC(=O)[C@H](CC(C)C)NC(=O)[C@@H](CC(C)C)NC(=O)[C@H](CCN)NC2=O)[C@@H](C)O)NC(=O)[C@H](CCN)NC(=O)[C@H](Cc2ccc(O)cc2)NC1=O)C(C)C [Ex. 144] (I: Propionyl-VCY[Dab]E[dDab]SWS[Tle]CS-NH2 / II: [Dab]T[Dap][Dab][Dab][dL]L[Dab][Dab]T; disulfide I:2-I:11; amide I:5-II:N; lactam II:4-II:C) | <1% |
